Reference: patent US20220340629A1, “Myosin Derived Peptides and Related Compounds with Anticoagulant Activities” (THE SCRIPPS RESEARCH INSTITUTE, priority 0001, published 2022)
Residues, ends and D or L forms follow the SMILES beside them.

Molecular target: skeletal muscle myosin-supported prothrombin activation by factors Xa and Va (Homo sapiens, UniProt P00742)
Test: Assay 1A: prothrombin activation by factor Xa/factor Va/myosin in purified system
Assay type: biochemical, human factors Xa and Va; rabbit skeletal muscle myosin
Conditions: purified system; skeletal muscle myosin, factor Va 5 nM, factor Xa 0.2 nM, prothrombin 0.75 μM, 10 min; read-out: 1A (+myosin)

skeletal muscle myosin-supported prothrombin activation by factors Xa and Va, sequence (P00742 41-179): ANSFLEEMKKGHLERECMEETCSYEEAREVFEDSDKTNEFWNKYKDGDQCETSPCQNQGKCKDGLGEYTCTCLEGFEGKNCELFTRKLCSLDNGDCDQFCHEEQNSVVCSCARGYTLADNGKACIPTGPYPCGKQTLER
skeletal muscle myosin-supported prothrombin activation by factors Xa and Va, sequence (P00742 235-488): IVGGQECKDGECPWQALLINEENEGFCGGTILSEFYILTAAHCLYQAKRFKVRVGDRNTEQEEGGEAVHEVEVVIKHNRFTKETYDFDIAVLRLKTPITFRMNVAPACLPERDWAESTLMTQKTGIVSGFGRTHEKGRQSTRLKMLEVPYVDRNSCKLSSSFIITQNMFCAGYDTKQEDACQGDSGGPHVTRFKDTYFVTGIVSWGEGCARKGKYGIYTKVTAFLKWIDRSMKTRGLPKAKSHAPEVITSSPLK
skeletal muscle myosin-supported prothrombin activation by factors Xa and Va, sequence (P12259 29-737 partner): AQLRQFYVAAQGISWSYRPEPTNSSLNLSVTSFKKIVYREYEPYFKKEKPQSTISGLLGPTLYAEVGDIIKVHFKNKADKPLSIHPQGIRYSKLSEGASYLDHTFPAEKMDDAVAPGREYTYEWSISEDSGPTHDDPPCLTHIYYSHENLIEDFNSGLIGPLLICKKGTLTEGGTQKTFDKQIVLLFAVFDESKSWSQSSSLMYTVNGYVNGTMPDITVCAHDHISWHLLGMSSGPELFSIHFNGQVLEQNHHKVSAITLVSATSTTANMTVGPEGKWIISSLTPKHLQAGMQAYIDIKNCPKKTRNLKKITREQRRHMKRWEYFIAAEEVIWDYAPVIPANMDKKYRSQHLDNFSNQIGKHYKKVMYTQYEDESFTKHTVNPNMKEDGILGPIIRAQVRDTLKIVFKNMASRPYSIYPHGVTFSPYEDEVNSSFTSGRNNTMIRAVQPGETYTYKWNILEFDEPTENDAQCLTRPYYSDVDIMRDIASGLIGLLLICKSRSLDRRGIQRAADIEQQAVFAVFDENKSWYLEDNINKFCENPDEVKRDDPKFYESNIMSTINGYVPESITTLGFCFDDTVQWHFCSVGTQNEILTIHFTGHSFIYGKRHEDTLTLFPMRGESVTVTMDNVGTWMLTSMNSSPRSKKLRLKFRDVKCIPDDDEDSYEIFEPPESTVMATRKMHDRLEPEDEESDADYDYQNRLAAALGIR
skeletal muscle myosin-supported prothrombin activation by factors Xa and Va, sequence (P12259 1574-2224 partner): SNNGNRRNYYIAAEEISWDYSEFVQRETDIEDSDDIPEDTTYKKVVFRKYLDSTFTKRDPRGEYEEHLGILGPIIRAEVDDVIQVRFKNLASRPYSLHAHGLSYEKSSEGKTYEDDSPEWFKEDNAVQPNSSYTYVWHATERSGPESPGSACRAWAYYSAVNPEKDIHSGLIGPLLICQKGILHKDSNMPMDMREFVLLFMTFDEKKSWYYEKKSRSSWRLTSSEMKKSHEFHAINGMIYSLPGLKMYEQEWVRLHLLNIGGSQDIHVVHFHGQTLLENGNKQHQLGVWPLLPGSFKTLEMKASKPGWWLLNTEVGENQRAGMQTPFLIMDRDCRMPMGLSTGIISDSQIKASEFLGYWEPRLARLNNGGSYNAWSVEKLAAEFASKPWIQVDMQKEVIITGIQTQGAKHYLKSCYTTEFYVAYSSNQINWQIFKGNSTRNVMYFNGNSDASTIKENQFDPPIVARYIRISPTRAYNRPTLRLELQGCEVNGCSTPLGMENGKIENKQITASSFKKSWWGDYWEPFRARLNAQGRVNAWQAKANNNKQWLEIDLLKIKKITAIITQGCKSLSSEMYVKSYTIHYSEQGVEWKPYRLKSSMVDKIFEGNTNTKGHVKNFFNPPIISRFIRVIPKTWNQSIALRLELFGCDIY

Row | IC50 | SMILES
1 | 1100 nM | CC[C@H](C)[C@H](NC(=O)[C@H](C)N)C(=O)N[C@@H](Cc1ccccc1)C(=O)N[C@@H](CS)C(=O)N[C@H](C(=O)N[C@@H](CCC(N)=O)C(=O)N[C@@H](C)C(=O)N[C@@H](CC(N)=O)C(=O)N[C@H](C(=O)N[C@@H](CCCNC(=N)N)C(=O)N[C@@H](CO)C(=O)N[C@@H](Cc1ccccc1)C(=O)N[C@@H](CCSC)C(=O)N[C@@H](CC(N)=O)C(=O)N[C@H](C(=O)N[C@@H](CCCCN)C(=O)N[C@@H](Cc1c[nH]cn1)C(=O)N[C@@H](Cc1c[nH]c2ccccc12)C(=O)N1CCC[C@H]1C(=O)N[C@@H](Cc1c[nH]c2ccccc12)C(=O)N[C@@H](CCSC)C(=O)N[C@@H](CCCCN)C(N)=O)C(C)C)[C@@H](C)CC)[C@@H](C)CC [HC122] (H-AIFCIQANIRSFMNVKHWPWMK-NH2; N-terminus assumed)
2 | 600 nM | CC[C@H](C)[C@H](NC(=O)[C@H](C)N)C(=O)N[C@@H](Cc1ccccc1)C(=O)N[C@@H](CS)C(=O)N[C@H](C(=O)N[C@@H](CCC(N)=O)C(=O)N[C@@H](Cc1ccc(O)cc1)C(=O)N[C@@H](C)C(=O)N[C@H](C(=O)N[C@@H](CCCNC(=N)N)C(=O)N[C@@H](CO)C(=O)N[C@@H](Cc1ccccc1)C(=O)N[C@@H](CCSC)C(=O)N[C@@H](CC(N)=O)C(=O)N[C@H](C(=O)N[C@@H](CCCCN)C(=O)N[C@@H](Cc1c[nH]cn1)C(=O)N[C@@H](Cc1c[nH]c2ccccc12)C(=O)N1CCC[C@H]1C(=O)N[C@@H](Cc1c[nH]c2ccccc12)C(=O)N[C@@H](CCSC)C(=O)N[C@@H](CCCCN)C(N)=O)C(C)C)[C@@H](C)CC)[C@@H](C)CC [HC123] (H-AIFCIQYAIRSFMNVKHWPWMK-NH2; N-terminus assumed)
3 | 700 nM | CC[C@H](C)[C@H](NC(=O)[C@H](C)N)C(=O)N[C@@H](Cc1ccccc1)C(=O)N[C@@H](CS)C(=O)N[C@H](C(=O)N[C@@H](CCC(N)=O)C(=O)N[C@@H](Cc1ccc(O)cc1)C(=O)N[C@@H](CC(N)=O)C(=O)N[C@@H](C)C(=O)N[C@@H](CCCNC(=N)N)C(=O)N[C@@H](CO)C(=O)N[C@@H](Cc1ccccc1)C(=O)N[C@@H](CCSC)C(=O)N[C@@H](CC(N)=O)C(=O)N[C@H](C(=O)N[C@@H](CCCCN)C(=O)N[C@@H](Cc1c[nH]cn1)C(=O)N[C@@H](Cc1c[nH]c2ccccc12)C(=O)N1CCC[C@H]1C(=O)N[C@@H](Cc1c[nH]c2ccccc12)C(=O)N[C@@H](CCSC)C(=O)N[C@@H](CCCCN)C(N)=O)C(C)C)[C@@H](C)CC [HC124] (H-AIFCIQYNARSFMNVKHWPWMK-NH2; N-terminus assumed)
4 | 600 nM | CC[C@H](C)[C@H](NC(=O)[C@H](C)N)C(=O)N[C@@H](Cc1ccccc1)C(=O)N[C@@H](CS)C(=O)N[C@H](C(=O)N[C@@H](CCC(N)=O)C(=O)N[C@@H](Cc1ccc(O)cc1)C(=O)N[C@@H](CC(N)=O)C(=O)N[C@H](C(=O)N[C@@H](C)C(=O)N[C@@H](CO)C(=O)N[C@@H](Cc1ccccc1)C(=O)N[C@@H](CCSC)C(=O)N[C@@H](CC(N)=O)C(=O)N[C@H](C(=O)N[C@@H](CCCCN)C(=O)N[C@@H](Cc1c[nH]cn1)C(=O)N[C@@H](Cc1c[nH]c2ccccc12)C(=O)N1CCC[C@H]1C(=O)N[C@@H](Cc1c[nH]c2ccccc12)C(=O)N[C@@H](CCSC)C(=O)N[C@@H](CCCCN)C(N)=O)C(C)C)[C@@H](C)CC)[C@@H](C)CC [HC125] (H-AIFCIQYNIASFMNVKHWPWMK-NH2; N-terminus assumed)
5 | 4900 nM | CC[C@H](C)[C@H](NC(=O)[C@H](C)N)C(=O)N[C@@H](Cc1ccccc1)C(=O)N[C@@H](CS)C(=O)N[C@H](C(=O)N[C@@H](CCC(N)=O)C(=O)N[C@@H](Cc1ccc(O)cc1)C(=O)N[C@@H](CC(N)=O)C(=O)N[C@H](C(=O)N[C@@H](CCCNC(=N)N)C(=O)N[C@@H](C)C(=O)N[C@@H](Cc1ccccc1)C(=O)N[C@@H](CCSC)C(=O)N[C@@H](CC(N)=O)C(=O)N[C@H](C(=O)N[C@@H](CCCCN)C(=O)N[C@@H](Cc1c[nH]cn1)C(=O)N[C@@H](Cc1c[nH]c2ccccc12)C(=O)N1CCC[C@H]1C(=O)N[C@@H](Cc1c[nH]c2ccccc12)C(=O)N[C@@H](CCSC)C(=O)N[C@@H](CCCCN)C(N)=O)C(C)C)[C@@H](C)CC)[C@@H](C)CC [HC126] (H-AIFCIQYNIRAFMNVKHWPWMK-NH2; N-terminus assumed)
6 | 5900 nM | CC[C@H](C)[C@H](NC(=O)[C@H](C)N)C(=O)N[C@@H](Cc1ccccc1)C(=O)N[C@@H](CS)C(=O)N[C@H](C(=O)N[C@@H](CCC(N)=O)C(=O)N[C@@H](Cc1ccc(O)cc1)C(=O)N[C@@H](CC(N)=O)C(=O)N[C@H](C(=O)N[C@@H](CCCNC(=N)N)C(=O)N[C@@H](CO)C(=O)N[C@@H](C)C(=O)N[C@@H](CCSC)C(=O)N[C@@H](CC(N)=O)C(=O)N[C@H](C(=O)N[C@@H](CCCCN)C(=O)N[C@@H](Cc1c[nH]cn1)C(=O)N[C@@H](Cc1c[nH]c2ccccc12)C(=O)N1CCC[C@H]1C(=O)N[C@@H](Cc1c[nH]c2ccccc12)C(=O)N[C@@H](CCSC)C(=O)N[C@@H](CCCCN)C(N)=O)C(C)C)[C@@H](C)CC)[C@@H](C)CC [HC127] (H-AIFCIQYNIRSAMNVKHWPWMK-NH2; N-terminus assumed)
7 | 2000 nM | CC[C@H](C)[C@H](NC(=O)[C@H](C)N)C(=O)N[C@@H](Cc1ccccc1)C(=O)N[C@@H](CS)C(=O)N[C@H](C(=O)N[C@@H](CCC(N)=O)C(=O)N[C@@H](Cc1ccc(O)cc1)C(=O)N[C@@H](CC(N)=O)C(=O)N[C@H](C(=O)N[C@@H](CCCNC(=N)N)C(=O)N[C@@H](CO)C(=O)N[C@@H](Cc1ccccc1)C(=O)N[C@@H](C)C(=O)N[C@@H](CC(N)=O)C(=O)N[C@H](C(=O)N[C@@H](CCCCN)C(=O)N[C@@H](Cc1c[nH]cn1)C(=O)N[C@@H](Cc1c[nH]c2ccccc12)C(=O)N1CCC[C@H]1C(=O)N[C@@H](Cc1c[nH]c2ccccc12)C(=O)N[C@@H](CCSC)C(=O)N[C@@H](CCCCN)C(N)=O)C(C)C)[C@@H](C)CC)[C@@H](C)CC [HC128] (H-AIFCIQYNIRSFANVKHWPWMK-NH2; N-terminus assumed)
8 | 4200 nM | CC[C@H](C)[C@H](NC(=O)[C@H](C)N)C(=O)N[C@@H](Cc1ccccc1)C(=O)N[C@@H](CS)C(=O)N[C@H](C(=O)N[C@@H](CCC(N)=O)C(=O)N[C@@H](Cc1ccc(O)cc1)C(=O)N[C@@H](CC(N)=O)C(=O)N[C@H](C(=O)N[C@@H](CCCNC(=N)N)C(=O)N[C@@H](CO)C(=O)N[C@@H](Cc1ccccc1)C(=O)N[C@@H](CCSC)C(=O)N[C@@H](C)C(=O)N[C@H](C(=O)N[C@@H](CCCCN)C(=O)N[C@@H](Cc1c[nH]cn1)C(=O)N[C@@H](Cc1c[nH]c2ccccc12)C(=O)N1CCC[C@H]1C(=O)N[C@@H](Cc1c[nH]c2ccccc12)C(=O)N[C@@H](CCSC)C(=O)N[C@@H](CCCCN)C(N)=O)C(C)C)[C@@H](C)CC)[C@@H](C)CC [HC129] (H-AIFCIQYNIRSFMAVKHWPWMK-NH2; N-terminus assumed)
9 | 2100 nM | CC[C@H](C)[C@H](NC(=O)[C@H](C)N)C(=O)N[C@@H](Cc1ccccc1)C(=O)N[C@@H](CS)C(=O)N[C@H](C(=O)N[C@@H](CCC(N)=O)C(=O)N[C@@H](Cc1ccc(O)cc1)C(=O)N[C@@H](CC(N)=O)C(=O)N[C@H](C(=O)N[C@@H](CCCNC(=N)N)C(=O)N[C@@H](CO)C(=O)N[C@@H](Cc1ccccc1)C(=O)N[C@@H](CCSC)C(=O)N[C@@H](CC(N)=O)C(=O)N[C@@H](C)C(=O)N[C@@H](CCCCN)C(=O)N[C@@H](Cc1c[nH]cn1)C(=O)N[C@@H](Cc1c[nH]c2ccccc12)C(=O)N1CCC[C@H]1C(=O)N[C@@H](Cc1c[nH]c2ccccc12)C(=O)N[C@@H](CCSC)C(=O)N[C@@H](CCCCN)C(N)=O)[C@@H](C)CC)[C@@H](C)CC [HC130] (H-AIFCIQYNIRSFMNAKHWPWMK-NH2; N-terminus assumed)
10 | 2200 nM | CC[C@H](C)[C@H](NC(=O)[C@H](C)N)C(=O)N[C@@H](Cc1ccccc1)C(=O)N[C@@H](CS)C(=O)N[C@H](C(=O)N[C@@H](CCC(N)=O)C(=O)N[C@@H](Cc1ccc(O)cc1)C(=O)N[C@@H](CC(N)=O)C(=O)N[C@H](C(=O)N[C@@H](CCCNC(=N)N)C(=O)N[C@@H](CO)C(=O)N[C@@H](Cc1ccccc1)C(=O)N[C@@H](CCSC)C(=O)N[C@@H](CC(N)=O)C(=O)N[C@H](C(=O)N[C@@H](C)C(=O)N[C@@H](Cc1c[nH]cn1)C(=O)N[C@@H](Cc1c[nH]c2ccccc12)C(=O)N1CCC[C@H]1C(=O)N[C@@H](Cc1c[nH]c2ccccc12)C(=O)N[C@@H](CCSC)C(=O)N[C@@H](CCCCN)C(N)=O)C(C)C)[C@@H](C)CC)[C@@H](C)CC [HC131] (H-AIFCIQYNIRSFMNVAHWPWMK-NH2; N-terminus assumed)
11 | 3100 nM | CC[C@H](C)[C@H](NC(=O)[C@H](C)N)C(=O)N[C@@H](Cc1ccccc1)C(=O)N[C@@H](CS)C(=O)N[C@H](C(=O)N[C@@H](CCC(N)=O)C(=O)N[C@@H](Cc1ccc(O)cc1)C(=O)N[C@@H](CC(N)=O)C(=O)N[C@H](C(=O)N[C@@H](CCCNC(=N)N)C(=O)N[C@@H](CO)C(=O)N[C@@H](Cc1ccccc1)C(=O)N[C@@H](CCSC)C(=O)N[C@@H](CC(N)=O)C(=O)N[C@H](C(=O)N[C@@H](CCCCN)C(=O)N[C@@H](C)C(=O)N[C@@H](Cc1c[nH]c2ccccc12)C(=O)N1CCC[C@H]1C(=O)N[C@@H](Cc1c[nH]c2ccccc12)C(=O)N[C@@H](CCSC)C(=O)N[C@@H](CCCCN)C(N)=O)C(C)C)[C@@H](C)CC)[C@@H](C)CC [HC132] (H-AIFCIQYNIRSFMNVKAWPWMK-NH2; N-terminus assumed)
12 | 1800 nM | CC[C@H](C)[C@H](NC(=O)[C@H](C)N)C(=O)N[C@@H](Cc1ccccc1)C(=O)N[C@@H](CS)C(=O)N[C@H](C(=O)N[C@@H](CCC(N)=O)C(=O)N[C@@H](Cc1ccc(O)cc1)C(=O)N[C@@H](CC(N)=O)C(=O)N[C@H](C(=O)N[C@@H](CCCNC(=N)N)C(=O)N[C@@H](CO)C(=O)N[C@@H](Cc1ccccc1)C(=O)N[C@@H](CCSC)C(=O)N[C@@H](CC(N)=O)C(=O)N[C@H](C(=O)N[C@@H](CCCCN)C(=O)N[C@@H](Cc1c[nH]cn1)C(=O)N[C@@H](C)C(=O)N1CCC[C@H]1C(=O)N[C@@H](Cc1c[nH]c2ccccc12)C(=O)N[C@@H](CCSC)C(=O)N[C@@H](CCCCN)C(N)=O)C(C)C)[C@@H](C)CC)[C@@H](C)CC [HC133] (H-AIFCIQYNIRSFMNVKHAPWMK-NH2; N-terminus assumed)
